# Results as given in patent US20230094922A1, “METHODS OF THERAPEUTIC PROGNOSTICATION” (GENETIKAPLUS LTD., priority 2020, published 2023).
# Test system: iPSC-derived cortical neurons
# Format: cell-based
# Details: responders vs non-responders, 10 μM Bupropion
smiles,measurement,setting,value
"CC(NC(C)(C)C)C(=O)c1cccc(Cl)c1 (stereo not drawn) [Bupropion, 3-Chloro-N-tert-butyl-β-keto-α-methylphenethylamin]",logFC LGI1 expression,p<0.01,0.9793
same,logFC LRRC8B expression,p<0.01,0.4223
same,logFC MCM4 expression,p<0.01,0.5295
same,logFC MCUR1 expression,p<0.01,0.2421
same,logFC MDN1 expression,p<0.01,0.4167
same,logFC MEIOC expression,p<0.01,0.7172
same,logFC MGA expression,p<0.01,0.3064
same,logFC MGME1 expression,p<0.01,0.4368
same,logFC MZT1 expression,p<0.01,0.4887
same,logFC NFKBID expression,p<0.01,0.4452
same,logFC NOS2 expression,p<0.01,1.462
same,logFC NPY2R expression,p<0.01,1.653
same,logFC OSBPL11 expression,p<0.01,0.3394
same,logFC PAWR expression,p<0.01,0.4771
same,logFC PCGF5 expression,p<0.01,0.6056
same,logFC PHF6 expression,p<0.01,0.4686
same,logFC POU5F1B expression,p<0.01,0.9729
same,logFC PPAT expression,p<0.01,0.4669
same,logFC PRKDC expression,p<0.01,0.3963
same,logFC PTPN13 expression,p<0.01,0.5645
same,logFC RNGTT expression,p<0.01,0.3114
same,logFC S100A13 expression,p<0.01,0.7404
same,logFC SELENOI expression,p<0.01,0.336
same,logFC SFRP4 expression,p<0.01,1.737
same,logFC SIGLEC10 expression,p<0.01,0.8067
same,logFC SIKE1 expression,p<0.01,0.3013
same,logFC SIM1 expression,p<0.01,2.052
same,logFC SLC7A11 expression,p<0.01,0.6075
same,logFC SLC25A13 expression,p<0.01,0.3285
same,logFC SLC25A17 expression,p<0.01,0.3611
same,logFC SMG1 expression,p<0.01,0.2796
same,logFC SNRNP48 expression,p<0.01,0.4371
same,logFC SPIN4 expression,p<0.01,0.4838
same,logFC STK38L expression,p<0.01,0.387
same,logFC SYCP2L expression,p<0.01,0.5973
same,logFC TFAM expression,p<0.01,0.4583
same,logFC TIGAR expression,p<0.01,0.4965
same,logFC TNFRSF13C expression,p<0.01,0.5218
same,logFC TSGA10IP expression,p<0.01,0.8595
same,logFC TXNRD1 expression,p<0.01,0.3112
same,logFC USP37 expression,p<0.01,0.2938
same,logFC WNT8B expression,p<0.01,1.79
same,logFC WNT10B expression,p<0.01,1.077
same,logFC WWP1 expression,p<0.01,0.3073
same,logFC ZBTB24 expression,p<0.01,0.4021
same,logFC ZC3H13 expression,p<0.01,0.2827
same,logFC ZNF347 expression,p<0.01,0.3648
same,logFC ZWILCH expression,p<0.01,0.4164
same,logFC ACKR1,PValue NS,−1.506
same,logFC ACVR2A,PValue NS,−0.6074
same,logFC ADGRA1,PValue NS,−1.373
same,logFC ADGRG1,PValue NS,−0.7037
same,logFC AFAP1,PValue NS,−0.7585
same,logFC ANKRD34A,PValue NS,−1.243
same,logFC APBA1,PValue NS,−1.797
same,logFC APC2,PValue NS,−1.57
same,logFC APOL6,PValue NS,−1.252
same,logFC ARHGAP22,PValue NS,−2.023
same,logFC ASIC2,PValue NS,−1.907
same,logFC ATL1,PValue NS,−1.284
same,logFC ATP8A1,PValue NS,−1.064
same,logFC BCL11A,PValue NS,−1.755
same,logFC BTBD8,PValue NS,−0.8605
same,logFC C1QL1,PValue NS,−1.952
same,logFC C11orf87,PValue NS,−2.65
same,logFC C11orf95,PValue NS,−0.652
same,logFC C14orf132,PValue NS,−1.198
same,logFC CACNA1E,PValue NS,−1.888
same,logFC CALY,PValue NS,−1.348
same,logFC CARMIL3,PValue NS,−1.181
same,logFC CBFA2T3,PValue NS,−1.14
same,logFC CDKN2D,PValue NS,−1.375
same,logFC CEND1,PValue NS,−1.295
same,logFC CHD5,PValue NS,−1.435
same,logFC CHRNB4,PValue NS,−1.488
same,logFC CHRNG,PValue NS,−1.545
same,logFC CNR1,PValue NS,−1.187
same,logFC CNTN2,PValue NS,−2.494
same,logFC CRYGD,PValue NS,−3.453
same,logFC CTIF,PValue NS,−0.9638
same,logFC DACT3,PValue NS,−0.903
same,logFC DCLK1,PValue NS,−1.159
same,logFC DISP3,PValue NS,−1.132
same,logFC DLGAP3,PValue NS,−1.159
same,logFC DLL4,PValue NS,−2.038
same,logFC DNAJC6,PValue NS,−1.057
same,logFC DNAJC12,PValue NS,−0.9874
same,logFC DNM3,PValue NS,−1.295
same,logFC DOC2B,PValue NS,−2.034
same,logFC DOK4,PValue NS,−0.8299
same,logFC DPF3,PValue NS,−1.335
same,logFC DPP6,PValue NS,−1.175
same,logFC DUSP8,PValue NS,−1.12
same,logFC DUSP26,PValue NS,−1.67
same,logFC ELAVL2,PValue NS,−0.9184
same,logFC ELAVL3,PValue NS,−1.463
same,logFC ELMOD1,PValue NS,−1.395
same,logFC EPHB2,PValue NS,−1.009
same,logFC ERC2,PValue NS,−0.9757
same,logFC ESRRB,PValue NS,−1.635
same,logFC ESRRG,PValue NS,−1.003
same,logFC FAM78B,PValue NS,−1.309
same,logFC FAM131C,PValue NS,−1.177
same,logFC FAM155A,PValue NS,−0.6581
same,logFC FBLL1,PValue NS,−1.499
same,logFC FBXL16,PValue NS,−0.9816
same,logFC FLRT2,PValue NS,−0.9821
same,logFC FRRS1L,PValue NS,−1.313
same,logFC GALNT15,PValue NS,−1.592
same,logFC GDAP1L1,PValue NS,−1.2
same,logFC GDI1,PValue NS,−0.5928
same,logFC GNAT3,PValue NS,−1.874
same,logFC GNAZ,PValue NS,−0.8379
same,logFC GNG2,PValue NS,−1.148
same,logFC GPR12,PValue NS,−2.094
same,logFC GPR83,PValue NS,−1.576
same,logFC GPRASP1,PValue NS,−0.7562
same,logFC GPRIN3,PValue NS,−1.516
same,logFC GRIN2B,PValue NS,−2.921
same,logFC GRIN3A,PValue NS,−2.57
same,logFC GRM6,PValue NS,−1.37
same,logFC GRM7,PValue NS,−1.699
same,logFC GSE1,PValue NS,−0.6973
same,logFC GSTM3,PValue NS,−1.177
same,logFC HIVEP3,PValue NS,−1.261
same,logFC HPCAL4,PValue NS,−1.489
same,logFC INSYN1,PValue NS,−1.208
same,logFC INSYN2A,PValue NS,−1.914
same,logFC IQSEC3,PValue NS,−1.513
same,logFC JAKMIP3,PValue NS,−0.927
same,logFC KIDINS220,PValue NS,−0.8542
same,logFC KIF1A,PValue NS,−1.165
same,logFC KIF21B,PValue NS,−1.336
same,logFC KLF7,PValue NS,−0.8775
same,logFC L1CAM,PValue NS,−1.21
same,logFC LANCL2,PValue NS,−0.7582
same,logFC LBH,PValue NS,−0.8003
same,logFC MACO1,PValue NS,−0.6324
same,logFC MADD,PValue NS,−0.7392
same,logFC MAGEE1,PValue NS,−0.8404
same,logFC MANEAL,PValue NS,−1.302
same,logFC MAOA,PValue NS,−1.531
same,logFC MAP3K10,PValue NS,−0.7965
same,logFC MAPK8IP1,PValue NS,−1.32
same,logFC MAPT,PValue NS,−1.894
same,logFC MCF2L,PValue NS,−1.13
same,logFC MDGA1,PValue NS,−1.126
same,logFC MLLT11,PValue NS,−1.039
same,logFC MSANTD1,PValue NS,−1.341
same,logFC MTMR4,PValue NS,−0.6785
same,logFC MVB12B,PValue NS,−1.106
same,logFC MYH3,PValue NS,−3.064
same,logFC MYH6,PValue NS,−3.72
same,logFC MYT1,PValue NS,−1.297
same,logFC MYT1L,PValue NS,−2.032
same,logFC NAPB,PValue NS,−1.05
same,logFC NCAN,PValue NS,−1.327
same,logFC NCS1,PValue NS,−1.056
same,logFC NDP,PValue NS,−2.196
same,logFC NEFL,PValue NS,−0.8556
same,logFC NKAIN2,PValue NS,−1.212
same,logFC NOL4L,PValue NS,−0.7376
same,logFC NRN1,PValue NS,−0.9586
same,logFC NRXN2,PValue NS,−1.352
same,logFC NTRK1,PValue NS,−1.53
same,logFC NTS,PValue NS,−1.335
same,logFC NXPH1,PValue NS,−2.191
same,logFC OLFM1,PValue NS,−1.154
same,logFC OSBP2,PValue NS,−1.125
same,logFC PCDHA5,PValue NS,−1.076
same,logFC PCDHA7,PValue NS,−1.111
same,logFC PCDHB13,PValue NS,−1.168
same,logFC PCDHB15,PValue NS,−1.085
same,logFC PCDHGA4,PValue NS,−1.156
same,logFC PCDHGA6,PValue NS,−1.871
same,logFC PCSK2,PValue NS,−1.936
same,logFC PEG3,PValue NS,−3.912
same,logFC PEX5L,PValue NS,−1.625
same,logFC PHACTR1,PValue NS,−1.247
same,logFC PIP4K2B,PValue NS,−0.6164
same,logFC PLCL1,PValue NS,−1.271
same,logFC PLPPR4,PValue NS,−2.082
same,logFC PLPPR5,PValue NS,−1.467
same,logFC PLXNA4,PValue NS,−1.432
same,logFC PNMA6A,PValue NS,−1.328
same,logFC PODXL2,PValue NS,−0.8136
same,logFC PRKAR1B,PValue NS,−1.374
same,logFC PTGFR,PValue NS,−2.027
same,logFC PTPRT,PValue NS,−1.789
same,logFC QPCT,PValue NS,−1.04
same,logFC RALYL,PValue NS,−2.285
same,logFC RGN,PValue NS,−1.436
same,logFC RIMS3,PValue NS,−1.119
same,logFC ROBO2,PValue NS,−1.394
same,logFC RPS6KL1,PValue NS,−1.019
same,logFC RTN2,PValue NS,−0.9099
same,logFC RTN4,PValue NS,−0.6753
same,logFC RUNDC3A,PValue NS,−1.678
same,logFC RUSC2,PValue NS,−0.9937
same,logFC SBK1,PValue NS,−0.9487
same,logFC SCAMP5,PValue NS,−0.8113
same,logFC SCRT1,PValue NS,−1.427
same,logFC SEPTIN4,PValue NS,−1.513
same,logFC SGIP1,PValue NS,−1.239
same,logFC SH3GL2,PValue NS,−1.666
same,logFC SHC2,PValue NS,−0.6933
same,logFC SHC4,PValue NS,−2.453
same,logFC SHISA7,PValue NS,−1.011
same,logFC SLC1A4,PValue NS,−1.383
same,logFC SLC4A3,PValue NS,−1.275
same,logFC SLC6A17,PValue NS,−2.434
same,logFC SLC24A3,PValue NS,−1.458
same,logFC SLC30A10,PValue NS,−1.88
same,logFC SLIT1,PValue NS,−1.122
same,logFC SLITRK3,PValue NS,−2.443
same,logFC SMIM18,PValue NS,−1.721
same,logFC SMIM22,PValue NS,−1.921
same,logFC SNAP25,PValue NS,−1.475
same,logFC SNN,PValue NS,−0.6591
same,logFC SOBP,PValue NS,−0.9125
same,logFC SOGA3,PValue NS,−1.2
same,logFC SOX4,PValue NS,−0.6592
same,logFC SPOCK2,PValue NS,−2.032
same,logFC SPRN,PValue NS,−1.245
same,logFC SRL,PValue NS,−1.711
same,logFC STMN3,PValue NS,−1.145
same,logFC SYT3,PValue NS,−1.332
same,logFC SYT4,PValue NS,−1.54
same,logFC SYT5,PValue NS,−1.94
same,logFC SYT11,PValue NS,−0.7686
same,logFC TACR1,PValue NS,−1.666
same,logFC TAFA2,PValue NS,−1.304
same,logFC TBC1D30,PValue NS,−1.541
same,logFC TCEAL6,PValue NS,−2.546
same,logFC TMCC2,PValue NS,−0.92
same,logFC TMEM35A,PValue NS,−1.274
same,logFC TMEM179,PValue NS,−1.494
same,logFC TMEM229B,PValue NS,−1.955
same,logFC TMOD2,PValue NS,−1.477
same,logFC TNR,PValue NS,−2.583
same,logFC TRIM67,PValue NS,−1.894
same,logFC UBE2QL1,PValue NS,−1.575
same,logFC UNC13A,PValue NS,−0.9018
same,logFC VAMP2,PValue NS,−0.7327
same,logFC VSTM2L,PValue NS,−1.008
same,logFC VWC2,PValue NS,−2.201
same,logFC XKR4,PValue NS,−1.301
same,logFC XKR7,PValue NS,−1.252
same,logFC ZNF436,PValue NS,−0.8527
same,logFC ZNF836,PValue NS,−0.9494
